In patent US20030206968A1, “Fungicidal mixtures” (priority 1999, published 2003):

What was measured:
Format in all cases: in vivo
Blumeria graminis [1] = test: Greenhouse, Blumeria graminis on barley, 2 days curative; details: Example 29
Procedure: (§1) The trials are carried out under greenhouse (Examples 1 to 32) or field conditions (Examples 33 to 40) in residual or curative applications. The fungicides are applied in single treatments, or in a combination comprising an azolopyrimidine of formula I and a compound selected from the classes (A), (B) and (C) as defined above. The compounds are applied in form of an aqueous spray mix obtained from a concentrated formulation or the technical material.
(§2) 1. Seed is planted in 6 cm diameter plastic pots and maintained in the greenhouse.
(§3) 2. When the primary leaf is fully expanded in the case of cereals or several leaves are present in the case of dicots, formulated test compounds are sprayed with a three nozzle overhead fungicide sprayer to near run-off. Alternatively, a single nozzle overhead track sprayer is used for application of the compounds to cereals at a rate of 200 l/ha. Plants are then allowed to air-dry.
(§4) 3. Inoculation precedes treatment in the case of curative evaluations and follows treatment in case of residual evaluations. For inoculation of powdery mildew disease, plants are set up on greenhouse benches with bottom watering mats and inoculated by dusting them with conidia from infected plants. Between inoculation and treatment for curative evaluations and between treatment and inoculation for residual evaluations, plants are maintained in the greenhouse with bottom watering.
(§5) 4. Disease on the foliage as percent leaf area with disease symptoms/signs is evaluated about 7 days after inoculation. In the case of wheat, the tips and bases of the leaves are excluded from the evaluation. [formula]
(§6) 1. Technical compounds are formulated in a solvent/surfactant system consisting of 5% acetone and 0.05% Tween 20 in deionized water. Compounds are dissolved in acetone prior to addition of the water; the Tween 20 can be added through either the acetone or the water. Dilutions are made using the solvent/surfactant system. Formulated compounds are prepared using deionized water.
(§7) 2. Two kinds of controls are included: Plants treated with the solvent/surfactant solution and inoculated (Solvent Blank). Untreated plants which are inoculated (Inoculated Control).
(§8) Assessments of the diseases took place at the indicated day after the application of the compounds. Per cent infected leaf area infected was evaluated. The efficacy of the compounds/compounds mixtures to control the diseases was calculated by using the formula given above under item 4: […]
(§9) Synergy was calculated using the % disease control values of specific treatments for the two COLBY formula given hereinabove
Fungicidal efficacy of the mixture of (S)-Azolopyrimidine C in admixture with Fenhexamid (2 days curative) against Blumeria graminis on barley. The tank mixes were obtained from technical material of (S)-Azolopyrimidine C and Fenhexamid.
Fungicidal efficacy of the mixture of (S)-Azolopyrimidine C in admixture with Azoxystrobin or Trifloxystrobin (2 days curative) against Blumeria graminis on barley. The tank mixes were obtained from technical material of (S)-Azolopyrimidine C and Azoxystrobin or Trifloxystrobin.

Blumeria graminis [2] = test: Greenhouse, Blumeria graminis on wheat, 2 days curative; details: Example 27
Procedure: as §1, §2, §3, §4, §5, §6, §7, §8, §9
Fungicidal efficacy of the mixture of (S)-Azolopyrimidine C in admixture with Azoxystrobin or Trifloxystrobin (2 days curative) against Blumeria graminis on wheat. The tank mixes were obtained from technical material of (S)-Azolopyrimidine C and Azoxystrobin or Trifloxystrobin.

Puccinia recondita [3] = test: Greenhouse, Puccinia recondita on wheat, 2 days curative; details: Example 28
Procedure: as §1, §2, §3, §4
(§10) For inoculation of non-powdery mildew diseases, an aqueous spore suspension of the pathogen is applied to the plant and the plants are kept 1-2 days in a moist infection chamber before being returned to the greenhouse where they are maintained by bottom watering.
as §5, §6, §7, §8, §9
Fungicidal efficacy of the mixture of (S)-Azolopyrimidine C in admixture with Azoxystrobin or Trifloxystrobin (2 days curative) against Puccinia recondita on wheat. The tank mixes were obtained from technical material of (S)-Azolopyrimidine C and Azoxystrobin or Trifloxystrobin.

Blumeria graminis [4] = test: Greenhouse, Blumeria graminis on wheat, 4 days residual; details: Example 30
Procedure: as §1, §2, §3, §4, §5, §6, §7, §8, §9
Fungicidal efficacy of the mixture of (S)-Azolopyrimidine C in admixture with Azoxystrobin or Trifloxystrobin (4 days residual) against Blumeria graminis on wheat. The tank mixes were obtained from technical material of (S)-Azolopyrimidine C and Azoxystrobin or Trifloxystrobin.

Puccinia recondita [5] = test: Greenhouse, Puccinia recondita on wheat, 4 days residual; details: Example 31
Procedure: as §1, §2, §3, §4, §10, §5, §6, §7, §8, §9
Fungicidal efficacy of the mixture of (S)-Azolopyrimidine C in admixture with Azoxystrobin or Trifloxystrobin (4 days residual) against Puccinia recondita on wheat. The tank mixes were obtained from technical material of (S)-Azolopyrimidine C and Azoxystrobin or Trifloxystrobin.

Blumeria graminis [6] = test: Greenhouse, Blumeria graminis on barley, 4 days residual; details: Example 32
Procedure: as §1, §2, §3, §4, §5, §6, §7, §8, §9
Fungicidal efficacy of the mixture of (S)-Azolopyrimidine C in admixture with Azoxystrobin (4 days residual) against Blumeria graminis on barley. The tank mixes were obtained from technical material of (S)-Azolopyrimidine C and Azoxystrobin.

Blumeria graminis [7] = test: Field test, Blumeria graminis on wheat; details: 17 days after application
Procedure: as §1
For the field study formulated Azolopyrimidine A, B or C and formulated compounds from the classes (A), (B) and (C) were used.
as §8, §9
The compounds are applied according to good agricultural practice in the form of an aqueous spray mix obtained from a concentrated formulation or the technical material at a rate of 400 l/ha. The disease control is evaluated according to the formula given for the greenhouse tests.
(§11) Fungicidal efficacy of the mixture of (S)-Azolopyrimidine C+cyproconazole in the field against Blumeria graminis on wheat 17 days after application The tank mix was obtained from a SC formulation containing 100 g (S)-Azolopyrimidine C per liter and an EC formulation containing 60 g cyproconazole per liter.
as §11, with “C+azoxystrobin” for “C+cyproconazole”, “a SC” for “an EC”, “250” for “60”, “azoxystrobin” for “cyproconazole”, “kg.” for “liter.”
Fungicidal efficacy of the mixture of Azolopyrimidine A and different cereal fungicides in the field against Blumeria graminis on wheat 15 days after application The tank mix was obtained from an SC formulation containing 100 g Azolopyrimidine A per liter and commercially available formulations of metconazole, epoxiconazole or kresoxim methyl, respectively.

Alternaria solani = test: Greenhouse, Alternaria solani on tomatoes, 1 day residual; details: Example 25; rate 16 g/ha
Procedure: as §1, §2, §3, §4, §10, §5, §6, §7, §8, §9
Fungicidal efficacy of the mixture of Azolopyrimidine C and different fungicides (1 day residual) against Alternaria solani on tomatoes The tank mix was obtained from an SC formulation containing 100 g Azolopyrimidine A per liter and WP formulations of dithianon (750 g/kg), captan (500 g/kg), cyprodinil (750 g/kg), mancozeb (800 g/kg), or a SC formulation of chlorothalonil (500 g/l), or a FS formulation of fenpiclonil (400 g/l), spectively.

Botrytis cinerea = test: Apple fruit Botrytis test, Botrytis cinerea on apple fruits, 3 day residual; details: Example 5
Procedure: 1. Apples (Malus X domestica Borkh.) variety Golden Delicious are disinfected by washing them briefly in 70% ethanol. After drying the apples are marked with four short equal-distant lines indicating the positions to be wounded.
2. Corresponding with the marks, four holes are poked around the apple equator with a pipette tip. 10 μl of the treatment solution are pipetted into each hole.
3. Three hours after application, 10 μl of a conidial suspension of Botrytis cinerea are pipetted into each. For incubation, the treated/inoculated apples are set up for five days.
4. Disease occurs as rotten apple tissue surrounding the inoculated wounds. The diameter of the rotten zone around each wound is measured.
1. Technical compounds are formulated in a solvent system consisting of 5% acetone and 0.05% Tween 20 in deionized water. Compounds are dissolved in acetone prior to dilution with water. Formulated compounds are prepared using deionized water.
2. Three kinds of controls are included:
Assessments of the diseases took place at the indicated day after the application of the compounds. Per cent infected leaf area infected was evaluated. The efficacy of the compounds/compounds mixtures to control the diseases was calculated by using the formula: [formula]
as §9
Fungicidal efficacy of the mixture of Azolopyrimidine A+vinclozolin (3 day residual) against Botrytis cinerea on apple fruits The tank mix was obtained from technical material of Azolopyrimidine A and a WG formulation containing 500 g vinclozolin per kg.
Fungicidal efficacy of the mixture of Azolopyrimidine A+cyprodinil (3 day residual) against Botrytis cinerea on apple fruits The tank mix was obtained from technical material of Azolopyrimidine A and a WG formulation containing 750 g cyprodinil per kg.
Fungicidal efficacy of the mixture of Azolopyrimidine A+benomyl (3 day residual) against Botrytis cinerea on apple fruits The tank mix was obtained from technical material of Azolopyrimidine A and a WP formulation containing 500 g benomyl per kg.

Erysiphe cichoracearum = test: Greenhouse, Erysiphe cichoracearum on cucumbers, 1 day residual
Procedure: as §1, §2, §3, §4, §5, §6, §7, §8, §9
Fungicidal efficacy of the mixture of Azolopyrimidine C+triforine (1 day residual) against Erysiphe cichoracearum on cucumbers
the tank mix was obtained from a SC formulation containing 100 g of Azolopyrimidine C per liter and an DC formulation containing and 190 g of triforine per liter.
Fungicidal efficacy of the mixture of Azolopyrimidine C+cyprodinil (1 day residual) against Erysiphe cichoracearum on cucumbers The tank mix was obtained from a SC formulation containing 100 g of Azolopyrimidine C per liter and a WG formulation containing and 750 g of cyprodinil per kg.

Leptosphaeria nodorum = test: Greenhouse, Leptosphaeria nodorum on wheat, 3 day residual; details: Example 1
Procedure: as §1, §2, §3, §4, §10, §5, §6, §7, §8, §9
Fungicidal efficacy of the mixture of Azolopyrimidine A+fenpropimorph (3 day residual) against Leptosphaeria nodorum on wheat The tank mix was obtained from technical material of Azolopyrimidine A and an EC formulation containing 750 g fenpropimorph per liter.
Fungicidal efficacy of the mixture of Azolopyrimidine A+tebuconazole (3 day residual) against Leptosphaeria nodorum on wheat The tank mix was obtained from technical material of Azolopyrimidine A and an EC formulation containing 250 g tebuconazole per liter.

CO/C=C(/C(=O)OC)c1ccccc1Oc1cc(Oc2ccccc2C#N)ncn1 [Azoxystrobin]
Observed Efficacy (Blumeria graminis [1]; dose rate 1.6 ppm): 0%
Observed Efficacy (Blumeria graminis [1]; dose rate 3.1 ppm): 10%
Observed Efficacy (Blumeria graminis [1]; dose rate 6.3 ppm): 21%
Observed Efficacy (Blumeria graminis [1]; dose rate 12.5 ppm): 49%
Observed Efficacy (Blumeria graminis [1]; dose rate 25 ppm): 73%
Observed Efficacy (Blumeria graminis [1]; dose rate 50 ppm): 87%
Observed Efficacy (Blumeria graminis [2]; dose rate 1.6 ppm): 0%
Observed Efficacy (Blumeria graminis [2]; dose rate 3.1 ppm): 2%
Observed Efficacy (Blumeria graminis [2]; dose rate 6.3 ppm): 21%
Observed Efficacy (Blumeria graminis [2]; dose rate 12.5 ppm): 28%
Observed Efficacy (Blumeria graminis [2]; dose rate 25 ppm): 48%
Observed Efficacy (Blumeria graminis [2]; dose rate 50 ppm): 61%
Observed Efficacy (Puccinia recondita [3]; dose rate 1.6 ppm): 0%
Observed Efficacy (Puccinia recondita [3]; dose rate 3.1 ppm): 25%
Observed Efficacy (Puccinia recondita [3]; dose rate 6.3 ppm): 48%
Observed Efficacy (Puccinia recondita [3]; dose rate 12.5 ppm): 85%
Observed Efficacy (Puccinia recondita [3]; dose rate 25 ppm): 95%
Observed Efficacy (Blumeria graminis [4]; dose rate 3.1 ppm): 0%
Observed Efficacy (Blumeria graminis [4]; dose rate 6.3 ppm): 0%
Observed Efficacy (Blumeria graminis [4]; dose rate 12.5 ppm): 7%
Observed Efficacy (Blumeria graminis [4]; dose rate 25 ppm): 9%
Observed Efficacy (Blumeria graminis [4]; dose rate 50 ppm): 9%
Observed Efficacy (Puccinia recondita [5]; dose rate 3.1 ppm): 0%
Observed Efficacy (Puccinia recondita [5]; dose rate 6.3 ppm): 0%
Observed Efficacy (Puccinia recondita [5]; dose rate 12.5 ppm): 0%
Observed Efficacy (Puccinia recondita [5]; dose rate 25 ppm): 0%
Observed Efficacy (Puccinia recondita [5]; dose rate 50 ppm): 8%
Observed Efficacy (Blumeria graminis [6]; dose rate 1.6 ppm): 0%
Observed Efficacy (Blumeria graminis [6]; dose rate 3.1 ppm): 3%
Observed Efficacy (Blumeria graminis [6]; dose rate 6.3 ppm): 3%
Observed Efficacy (Blumeria graminis [6]; dose rate 12.5 ppm): 3%
Observed Efficacy (Blumeria graminis [6]; dose rate 25 ppm): 2%
Observed Efficacy (Blumeria graminis [6]; dose rate 50 ppm): 9%
Observed Efficacy (Blumeria graminis [7]; azoxystrobin 75 g/ha alone): 49

O=C1C2CC=CCC2C(=O)N1SC(Cl)(Cl)Cl (centres unmarked) [captan]
Observed Efficacy (Alternaria solani): 18%

N#Cc1c(Cl)c(Cl)c(Cl)c(C#N)c1Cl [chlorothalonil]
Observed Efficacy (Alternaria solani): 13%

CC(C1CC1)C(O)(Cn1cncn1)c1ccc(Cl)cc1 (centres unmarked) [cyproconazole]
Observed Efficacy (Blumeria graminis [7]; cyproconazole 15 g/ha alone): 86
Observed Efficacy (Blumeria graminis [7]; cyproconazole 30 g/ha alone): 82

Cc1cc(C2CC2)nc(Nc2ccccc2)n1 [cyprodinil]
Observed Efficacy (Botrytis cinerea; dose rate 0.1 ppm): 2%
Observed Efficacy (Botrytis cinerea; dose rate 1 ppm): 46%
Observed Efficacy (Erysiphe cichoracearum; Example 24, dose rate 4 ppm): 0%
Observed Efficacy (Erysiphe cichoracearum; Example 24, dose rate 16 ppm): 29%
Observed Efficacy (Alternaria solani): 13%

N#Cc1sc2c(=O)c3ccccc3c(=O)c=2sc1C#N [dithianon]
Observed Efficacy (Alternaria solani): 50%

N#Cc1c[nH]cc1-c1cccc(Cl)c1Cl [fenpiclonil]
Observed Efficacy (Alternaria solani): 76%

CC(Cc1ccc(C(C)(C)C)cc1)CN1C[C@@H](C)O[C@@H](C)C1 (some centres unmarked) [fenpropimorph]
Observed Efficacy (Leptosphaeria nodorum; dose rate 0.5 ppm): 19%
Observed Efficacy (Leptosphaeria nodorum; dose rate 5 ppm): 15%

O=CNC(N1CCN(C(NC=O)C(Cl)(Cl)Cl)CC1)C(Cl)(Cl)Cl (centres unmarked) [triforine]
Observed Efficacy (Erysiphe cichoracearum; Example 23, dose rate 4 ppm): 0%
Observed Efficacy (Erysiphe cichoracearum; Example 23, dose rate 16 ppm): 15%

mancozeb
Observed Efficacy (Alternaria solani): 27%
